pIC50: −log10 of the molar value. Read-outs that look alike come from different tables or passages of the source.
Molecular target: T1, GLUT1 (Homo sapiens, UniProt P11166)
T1 sequence (P11166 1-492): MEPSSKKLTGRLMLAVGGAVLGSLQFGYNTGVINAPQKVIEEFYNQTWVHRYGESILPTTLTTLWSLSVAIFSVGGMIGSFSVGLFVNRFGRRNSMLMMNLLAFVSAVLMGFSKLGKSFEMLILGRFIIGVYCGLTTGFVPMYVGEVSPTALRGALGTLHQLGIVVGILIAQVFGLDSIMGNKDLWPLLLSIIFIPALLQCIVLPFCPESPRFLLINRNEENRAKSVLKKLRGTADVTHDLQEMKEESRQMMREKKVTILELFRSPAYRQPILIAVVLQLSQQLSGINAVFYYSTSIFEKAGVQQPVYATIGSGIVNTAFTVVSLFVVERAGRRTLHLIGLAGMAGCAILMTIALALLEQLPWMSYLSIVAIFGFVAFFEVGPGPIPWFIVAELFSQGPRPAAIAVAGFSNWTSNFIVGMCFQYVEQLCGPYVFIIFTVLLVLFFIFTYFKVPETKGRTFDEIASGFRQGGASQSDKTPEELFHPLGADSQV
Experiment: Indirect measurement of GLUT1 activity by quantification of intracellular ATP levels (glucose induced ATP increase)
Format: cell-based
Design: endogenous in cells; host or cells: DLD1 or CHO-K1
Conditions: read-out: IC50 regarding glucose induced ATP increase (GLUT1 inhibition)
Summary of the method: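 Intracellular ATP was measured by CellTiter-Glo luminescence as an indirect readout of transport: glucose-driven for GLUT1, fructose-driven for GLUT2. DLD1 or CHO-K1 cells were used alongside an oxidative phosphorylation inhibitor. Beforehand, cells were held overnight in glucose-free 1% FCS medium to deplete ATP.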

Compound | pIC50 | pIC50 (DLD1 cells, 0.1 mM glucose, 1 μM Rotenone, 15 min, CellTiter-Glo ATP readout, IC50 values standardized to cytochalasin B IC50 values)
Cc1c(NC(=O)c2cc(S(N)(=O)=O)nc3ccccc23)c(C(F)(F)F)nn1Cc1ccc(C#N)cc1 [Example 1572] | 6.66 | 
Cc1nn(Cc2ccc(C#N)cc2)c(C)c1NC(=O)c1cc(S(N)(=O)=O)nc2ccccc12 [Example 1573] | 6.38 | 
CNS(=O)(=O)c1cc(C(=O)Nc2c(C(F)(F)F)nn(Cc3ccc(C#N)cc3)c2C)c2ccccc2n1 [Example 1574] | 7.31 | 
CNS(=O)(=O)c1cc(C(=O)Nc2c(C)nn(Cc3ccc(C#N)cc3)c2C)c2ccccc2n1 [Example 1575] | 7.42 | 
Cc1c(NC(=O)c2cc(S(=O)(=O)N(C)C)nc3ccccc23)c(C(F)(F)F)nn1Cc1ccc(C#N)cc1 [Example 1576] | 7.69 | 
Cc1nn(Cc2ccc(C#N)cc2)c(C)c1NC(=O)c1cc(S(=O)(=O)N(C)C)nc2ccccc12 [Example 1577] | 8.01 | 
Cc1c(NC(=O)c2cc(C(N)=O)nc3cc(F)ccc23)c(C(F)(F)F)nn1Cc1cccc(C#N)c1 [Example 1578] |  | 7.60
Cc1c(NC(=O)c2cc(C(N)=O)nc3ccccc23)c(C(F)(F)F)nn1Cc1cccc(C#N)c1 [Example 1579] | 7.63 | 
Cc1c(NC(=O)c2cc(C(N)=O)nc3cc(F)c(Cl)cc23)c(C(F)(F)F)nn1Cc1cccc(C#N)c1 [Example 1580] | 8.74 | 
Cc1c(NC(=O)c2cc(C(N)=O)nc3cccc(F)c23)c(C(F)(F)F)nn1Cc1cccc(C#N)c1 [Example 1581] | 7.57 | 
COCc1ccc(Cn2nc(C)c(NC(=O)c3cc(C(N)=O)nc4cc(F)ccc34)c2C)cc1 [Example 1582] | 8.41 | 
Cc1nn(Cc2cccc(OC(F)(F)F)c2)c(C)c1NC(=O)c1cc(C(N)=O)nc2cc(F)c(Cl)cc12 [Example 1583] | 7.94 | 
Cc1c(NC(=O)c2cc(C(N)=O)nc3cccc(F)c23)c(C(F)(F)F)nn1Cc1cccc(OC(F)(F)F)c1 [Example 1584] | 6.26 | 
Cc1nn(Cc2cccc(OC(F)(F)F)c2)c(C)c1NC(=O)c1cc(C(N)=O)nc2ccccc12 [Example 1585] | 7.34 | 
Cc1nn(Cc2cccc(OC(F)(F)F)c2)c(C)c1NC(=O)c1cc(C(N)=O)nc2cc(F)ccc12 [Example 1586] | 7.43 | 
Cc1nn(Cc2cccc(OC(F)(F)F)c2)c(C)c1NC(=O)c1cc(C(N)=O)nc2cccc(F)c12 [Example 1587] | 7.38 | 
COc1ccccc1Cn1nc(C(F)(F)F)c(NC(=O)c2cc(C(N)=O)nc3cc(F)ccc23)c1C [Example 1588] | 6.76 | 
Cc1c(NC(=O)c2cc(C(N)=O)nc3cc(F)c(Cl)cc23)c(C(F)(F)F)nn1Cc1ccc(C(F)(F)F)cc1 [Example 1589] | 7.86 | 
Cc1c(NC(=O)c2cc(C(N)=O)nc3cc(F)ccc23)c(C(F)(F)F)nn1Cc1ccc(C(F)(F)F)cc1 [Example 1590] | 8.01 | 
Cc1c(NC(=O)c2cc(C(N)=O)nc3cccc(F)c23)c(C(F)(F)F)nn1Cc1ccc(C(F)(F)F)cc1 [Example 1591] | 7.78 | 
Cc1c(NC(=O)c2cc(C(N)=O)nc3ccccc23)c(C(F)(F)F)nn1Cc1ccc(CC#N)cc1 [Example 1592] | 8.89 | 

Compound | pIC50 | pIC50 (DLD1 cells, 0.1 mM glucose, 1 μM Rotenone, 15 min, CellTiter-Glo ATP readout, IC50 values standardized to cytochalasin B IC50 values)
Cc1c(NC(=O)c2cc(C(N)=O)nc3cccc(F)c23)c(C(F)(F)F)nn1Cc1ccc(CC#N)cc1 [Example 1593] | 8.89 | 
Cc1c(NC(=O)c2cc(C(N)=O)nc3cc(F)c(Cl)cc23)c(C(F)(F)F)nn1Cc1ccc(CC#N)cc1 [Example 1594] | 8.96 | 
Cc1c(NC(=O)c2cc(C(N)=O)nc3ccc(Br)cc23)c(C(F)(F)F)nn1Cc1ccc(CC#N)cc1 [Example 1595] | 8.80 | 
Cc1c(NC(=O)c2cc(C(N)=O)nc3cc(F)ccc23)c(C(F)(F)F)nn1Cc1ccc(C(C)(C)C#N)cc1 [Example 1596] | 7.17 | 
Cc1c(NC(=O)c2cc(C(N)=O)nc3cccc(F)c23)c(C(F)(F)F)nn1Cc1ccc(C(C)(C)C#N)cc1 [Example 1597] | 7.05 | 
Cc1nn(Cc2ccc(C(F)(F)F)cc2)c(C)c1NC(=O)c1cc(C(N)=O)nc2cc(F)c(Cl)cc12 [Example 1598] | 8.85 | 
Cc1nn(Cc2ccc(C(F)(F)F)cc2)c(C)c1NC(=O)c1cc(C(N)=O)nc2cc(F)ccc12 [Example 1599] | 8.19 | 
Cc1nn(Cc2ccc(C(F)(F)F)cc2)c(C)c1NC(=O)c1cc(C(N)=O)nc2cccc(F)c12 [Example 1600] | 8.46 | 
Cc1c(NC(=O)c2cc(C(N)=O)nc3cc(F)ccc23)c(C(F)(F)F)nn1Cc1cccc(C(N)=O)c1 [Example 1601] | 7.61 | 
Cc1c(NC(=O)c2cc(C(N)=O)nc3cccc(F)c23)c(C(F)(F)F)nn1Cc1cccc(C(N)=O)c1 [Example 1602] | 7.53 | 
Cc1c(NC(=O)c2cc(C(N)=O)nc3cc(F)c(Cl)cc23)c(C(F)(F)F)nn1Cc1cccc(C(N)=O)c1 [Example 1603] | 8.24 | 
CC(=O)c1ccc(Cn2nc(C(F)(F)F)c(NC(=O)c3cc(C(N)=O)nc4ccccc34)c2C)cc1 [Example 1604] | 8.33 | 
CC(=O)c1ccc(Cn2nc(C(F)(F)F)c(NC(=O)c3cc(C(N)=O)nc4cc(F)ccc34)c2C)cc1 [Example 1605] | 8.59 | 
CC(=O)c1ccc(Cn2nc(C(F)(F)F)c(NC(=O)c3cc(C(N)=O)nc4cccc(F)c34)c2C)cc1 [Example 1606] | 8.62 | 
CC(=O)c1ccc(Cn2nc(C)c(NC(=O)c3cc(C(N)=O)nc4ccccc34)c2C)cc1 [Example 1607] | 8.46 | 
CC(=O)c1ccc(Cn2nc(C)c(NC(=O)c3cc(C(N)=O)nc4cc(F)ccc34)c2C)cc1 [Example 1608] | 8.40 | 
CC(=O)c1ccc(Cn2nc(C)c(NC(=O)c3cc(C(N)=O)nc4cccc(F)c34)c2C)cc1 [Example 1609] | 8.92 | 
Cc1ccc2c(C(=O)Nc3c(C(F)(F)F)nn(Cc4ccc(C#N)cc4)c3C)cc(C(N)=O)nc2c1 [Example 1610] | 8.08 | 
Cc1c(NC(=O)c2cc(C(N)=O)nc3cc(F)c(Br)cc23)c(C(F)(F)F)nn1Cc1ccc(C#N)cc1 [Example 1611] | 9.10 | 
Cc1nn(Cc2ccc(CC#N)cc2)c(C)c1NC(=O)c1cc(C(N)=O)nc2cccc(F)c12 [Example 1612] | 8.62 | 
Cc1nn(Cc2ccc(CC#N)cc2)c(C)c1NC(=O)c1cc(C(N)=O)nc2cc(F)ccc12 [Example 1613] | 9.15 | 

Compound | pIC50 | pIC50 (DLD1 cells, 0.1 mM glucose, 1 μM Rotenone, 15 min, CellTiter-Glo ATP readout, IC50 values standardized to cytochalasin B IC50 values)
Cc1nn(Cc2ccc(CC#N)cc2)c(C)c1NC(=O)c1cc(C(N)=O)nc2ccccc12 [Example 1614] | 9.10 | 
Cc1c(NC(=O)c2cc(C(N)=O)nc3cc(F)ccc23)c(C(F)(F)F)nn1Cc1ccc(C2CCC2)cc1 [Example 1616] | 7.17 | 
Cc1c(NC(=O)c2cc(C(N)=O)nc3ccccc23)c(C(F)(F)F)nn1Cc1ccc(C2CCC2)cc1 [Example 1617] | 7.26 | 
Cc1c(NC(=O)c2cc(C(N)=O)nc3cccc(F)c23)c(C(F)(F)F)nn1Cc1ccc(C2CCC2)cc1 [Example 1618] | 7.65 | 
CC(=O)c1cccc(Cn2nc(C(F)(F)F)c(NC(=O)c3cc(C(N)=O)nc4cc(F)ccc34)c2C)c1 [Example 1619] | 7.40 | 
CC(=O)c1cccc(Cn2nc(C(F)(F)F)c(NC(=O)c3cc(C(N)=O)nc4cccc(F)c34)c2C)c1 [Example 1620] | 7.02 | 
CC(=O)c1cccc(Cn2nc(C(F)(F)F)c(NC(=O)c3cc(C(N)=O)nc4cc(F)c(Cl)cc34)c2C)c1 [Example 1621] | 7.82 | 
CC(=O)c1cccc(Cn2nc(C(F)(F)F)c(NC(=O)c3cc(C(N)=O)nc4ccccc34)c2C)c1 [Example 1622] | 7.30 | 
CC(=O)c1cccc(Cn2nc(C)c(NC(=O)c3cc(C(N)=O)nc4cc(F)c(Cl)cc34)c2C)c1 [Example 1623] | 9.10 | 
CC(=O)c1cccc(Cn2nc(C)c(NC(=O)c3cc(C(N)=O)nc4cccc(F)c34)c2C)c1 [Example 1624] | 7.73 | 
CC(=O)c1cccc(Cn2nc(C)c(NC(=O)c3cc(C(N)=O)nc4cc(F)ccc34)c2C)c1 [Example 1625] | 7.39 | 
CC(=O)c1cccc(Cn2nc(C)c(NC(=O)c3cc(C(N)=O)nc4ccccc34)c2C)c1 [Example 1626] | 6.97 | 
Cc1c(NC(=O)c2cc(C(N)=O)nc3cc(F)ccc23)c(C(F)(F)F)nn1Cc1c(F)cccc1F [Example 1627] | 7.52 | 
Cc1c(NC(=O)c2cc(C(N)=O)nc3ccccc23)c(C(F)(F)F)nn1Cc1c(F)cccc1F [Example 1628] | 7.82 | 
Cc1c(NC(=O)c2cc(C(N)=O)nc3cccc(F)c23)c(C(F)(F)F)nn1Cc1c(F)cccc1F [Example 1629] | 7.79 | 
Cc1c(NC(=O)c2cc(C(N)=O)nc3cc(F)c(Cl)cc23)c(C(F)(F)F)nn1Cc1c(F)cccc1F [Example 1630] | 8.40 | 
Cc1nn(Cc2c(F)cccc2F)c(C)c1NC(=O)c1cc(C(N)=O)nc2cc(F)ccc12 [Example 1631] | 8.19 | 
Cc1nn(Cc2c(F)cccc2F)c(C)c1NC(=O)c1cc(C(N)=O)nc2ccccc12 [Example 1632] | 8.00 | 
Cc1nn(Cc2c(F)cccc2F)c(C)c1NC(=O)c1cc(C(N)=O)nc2cccc(F)c12 [Example 1633] | 8.34 | 
Cc1nn(Cc2c(F)cccc2F)c(C)c1NC(=O)c1cc(C(N)=O)nc2cc(F)c(Cl)cc12 [Example 1634] | 8.66 | 

— patent publication US20170037028A1 (BAYER PHARMA AKTIENGESELLSCHAFT, priority 2013, published 2017)
